# In PubChem BioAssay (NCI):
#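 1) Cells in 96-well plates. 2) Compound, 48 h, 5 concentrations. 3) Linear interpolation between surrounding doses. 4) Unreached endpoint = highest concentration. TGI marks complete inhibition of growth.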
# What was measured:
# Assay in all cases: NCI tumour cell line growth inhibition, 48 h
# UO-31 renal = system: UO-31 renal
# SF-295 CNS = system: SF-295 CNS
# HCT-15 colon = system: HCT-15 colon
# MDA-MB-231 breast = system: MDA-MB-231 breast
# 786-0 renal = system: 786-0 renal
# COLO 205 colon = system: COLO 205 colon
# ACHN renal = system: ACHN renal
# MDA-MB-435 = system: MDA-MB-435
# SNB-19 CNS = system: SNB-19 CNS
# HT29 colon = system: HT29 colon
# PC-3 prostate = system: PC-3 prostate
# OVCAR-4 ovarian = system: OVCAR-4 ovarian
# M14 melanoma = system: M14 melanoma
# NCI-H522 lung = system: NCI-H522 lung
# MALME-3M melanoma = system: MALME-3M melanoma
# SW-620 colon = system: SW-620 colon
# HCT-116 colon = system: HCT-116 colon
# SF-539 CNS = system: SF-539 CNS
# DU-145 prostate = system: DU-145 prostate
# SNB-75 CNS = system: SNB-75 CNS
# HOP-92 NSCLC = system: HOP-92 NSCLC
# SN12C renal = system: SN12C renal
# EKVX NSCLC = system: EKVX NSCLC
# OVCAR-8 ovarian = system: OVCAR-8 ovarian
# NCI-H23 lung = system: NCI-H23 lung
# SF-268 CNS = system: SF-268 CNS
# U251 CNS = system: U251 CNS
# CCRF-CEM leukemia = system: CCRF-CEM leukemia
# CAKI-1 renal = system: CAKI-1 renal
# HS 578T breast = system: HS 578T breast
# NCI/ADR-RES ovarian = system: NCI/ADR-RES ovarian
# SR leukemia = system: SR leukemia
# KM12 colon = system: KM12 colon
# MOLT-4 leukemia = system: MOLT-4 leukemia
# NCI-H226 lung = system: NCI-H226 lung
# HL-60(TB) leukemia = system: HL-60(TB) leukemia
# TK-10 renal = system: TK-10 renal
# A549 NSCLC = system: A549 NSCLC
# K-562 leukemia = system: K-562 leukemia
# BT-549 breast = system: BT-549 breast
# SK-MEL-2 melanoma = system: SK-MEL-2 melanoma
# RPMI-8226 leukemia = system: RPMI-8226 leukemia
# NCI-H460 lung = system: NCI-H460 lung
# MCF7 breast = system: MCF7 breast
# OVCAR-5 ovarian = system: OVCAR-5 ovarian
# IGROV1 ovarian = system: IGROV1 ovarian
# UACC-257 melanoma = system: UACC-257 melanoma
# UACC-62 melanoma = system: UACC-62 melanoma
# SK-MEL-28 melanoma = system: SK-MEL-28 melanoma
# SK-OV-3 ovarian = system: SK-OV-3 ovarian
# OVCAR-3 ovarian = system: OVCAR-3 ovarian
# LOX IMVI melanoma = system: LOX IMVI melanoma
# MDA-N = system: MDA-N
# HOP-62 NSCLC = system: HOP-62 NSCLC
compound,measurement,setting,value
Cc1cccc(/C=C2\CCCc3ccccc3C2=O)c1,TGI,UO-31 renal,> 100 µM
same,TGI,SF-295 CNS,41.8 µM
same,TGI,HCT-15 colon,44.9 µM
same,TGI,MDA-MB-231 breast,48 µM
same,TGI,786-0 renal,> 100 µM
same,TGI,COLO 205 colon,35.8 µM
same,TGI,ACHN renal,86.6 µM
same,TGI,MDA-MB-435,37 µM
same,TGI,SNB-19 CNS,90.3 µM
same,TGI,HT29 colon,46.6 µM
same,TGI,PC-3 prostate,> 100 µM
same,TGI,OVCAR-4 ovarian,47.7 µM
same,TGI,M14 melanoma,34.6 µM
same,TGI,NCI-H522 lung,33.1 µM
same,TGI,MALME-3M melanoma,35.3 µM
same,TGI,SW-620 colon,30.7 µM
same,TGI,HCT-116 colon,31.2 µM
same,TGI,SF-539 CNS,34.4 µM
same,TGI,DU-145 prostate,> 100 µM
same,TGI,SNB-75 CNS,> 100 µM
same,TGI,HOP-92 NSCLC,58.5 µM
same,TGI,SN12C renal,38 µM
same,TGI,EKVX NSCLC,57.1 µM
same,TGI,OVCAR-8 ovarian,78.3 µM
same,TGI,NCI-H23 lung,79.8 µM
same,TGI,SF-268 CNS,29.6 µM
same,TGI,U251 CNS,48.5 µM
same,TGI,CCRF-CEM leukemia,35.1 µM
same,TGI,CAKI-1 renal,> 100 µM
same,TGI,HS 578T breast,32.6 µM
same,TGI,NCI/ADR-RES ovarian,69.2 µM
same,TGI,SR leukemia,40.3 µM
same,TGI,KM12 colon,26.1 µM
same,TGI,MOLT-4 leukemia,68.6 µM
same,TGI,NCI-H226 lung,40.8 µM
same,TGI,HL-60(TB) leukemia,29 µM
same,TGI,TK-10 renal,> 100 µM
same,TGI,A549 NSCLC,> 100 µM
same,TGI,K-562 leukemia,48.8 µM
same,TGI,BT-549 breast,75.6 µM
same,TGI,SK-MEL-2 melanoma,30.8 µM
same,TGI,RPMI-8226 leukemia,45.8 µM
same,TGI,NCI-H460 lung,36.5 µM
same,TGI,MCF7 breast,56.2 µM
same,TGI,OVCAR-5 ovarian,31.6 µM
same,TGI,IGROV1 ovarian,59.6 µM
same,TGI,UACC-257 melanoma,61.8 µM
same,TGI,UACC-62 melanoma,27.5 µM
same,TGI,SK-MEL-28 melanoma,59 µM
same,TGI,SK-OV-3 ovarian,> 100 µM
same,TGI,OVCAR-3 ovarian,78.7 µM
same,TGI,LOX IMVI melanoma,37 µM
same,TGI,MDA-N,55 µM
same,TGI,HOP-62 NSCLC,99.4 µM
